From the supplement of paper PMC3974653
Where a name gives a salt, the structure may show the parent alone.

Tested on: MTT (mouse pheochromocytoma)
Assay: IC50 of cell viability (ATP content)
Settings: (24 or 48 h)
Summary of the method: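 MTT mouse pheochromocytoma cells (5 µl of 200,000 cells/ml per well, white 1536-well plates, DMEM with 5% FBS and 1% horse serum) were cultured overnight at 37°C, 5% CO2. They then received 23 nl library compound in DMSO by pintool at 8 concentrations (final 0.5 nM to 46 µM) for 24 or 48 hrs. CellTiter-Glo ATP luminescence was read after 15 minutes. Signals were normalised to positive-control (100% inhibition) and DMSO (0%) wells, and IC50 came from a four-parameter logistic fit.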

| IC50 of cell viability | SMILES |
| --- | --- |
| > 46 µM | Cc1cn([C@H]2CC(F)[C@@H](CO)O2)c(=O)[nH]c1=O (some centres undefined) [Alovudine] |
| > 46 µM | CN1CCN2c3ccccc3Cc3ccccc3C2C1 (centres undefined) [MIANSERIN] |
| > 46 µM | CN(Cc1ccccc1)Cc1ccccc1 [Dibemethine] |
| > 46 µM | Cc1cccc(C)c1NC(=O)C1CCCCN1C.Cl (centres undefined) [MEPIVACAINE HYDROCHLORIDE] |
| > 46 µM | C[S+](=O)([O-])Nc1cc2occ(NC=O)c(=O)c2cc1Oc1ccccc1 [T 614] |
| > 46 µM | CN1CCCC(CN2c3ccccc3Sc3ccccc32)C1 (centres undefined) [Pecazina] |
| > 46 µM | OC[C@@H]1O[C@H](C[C@@H]1O)N2\C=C(\I)C(=O)NC2=O [Idoxuridine] |
| > 46 µM | Cc1oncc1C(=O)Nc1ccc(C(F)(F)F)cc1 [Leflunomide] |
| > 46 µM | Nc1nccs1 [AMINOTHIAZOLE] |
| > 46 µM | CCCOC(=O)c1ccc(O)cc1 [Propyl-4-hydroxybenzoate] |
| > 46 µM | O=C1C=C(CO)OCC1=O [Kojic acid] |
| > 46 µM | Cl.OC(=O)C/1=C/N(C2=CC=C(F)C=C2)C3=C(C=C(F)C(=C3)N4CCNCC4)C1=O [SARAFLOXACIN HYDROCHLORIDE] |
| > 46 µM | C/C=C/c1ccc(OC)cc1 [Anethole] |
| > 46 µM | Cc1ccc(/C=N/n2c(-c3ccccc3)csc2=S)cc1 [FEZATIONE] |
| > 46 µM | CN(C)C/C=C(/c1ccc(Br)cc1)c1cccnc1.Cl.Cl [Zimelidine dihydrochloride] |
| > 46 µM | CCCC(O)C(CC)CO (centres undefined) [2-ETHYL-1,3-HEXANEDIOL] |
| > 46 µM | OC[C@H]1O[C@@H]2O[C@H]3[C@H](O)[C@@H](O)[C@@H](O[C@H]4[C@H](O)[C@@H](O)[C@@H](O[C@H]5[C@H](O)[C@@H](O)[C@@H](O[C@H]6[C@H](O)[C@@H](O)[C@@H](O[C@H]7[C@H](O)[C@@H](O)[C@@H](O[C@H]8[C@H](O)[C@@H](O)[C@@H](O[C@H]1[C@H](O)[C@H]2O)O[C@@H]8CO)O[C@@H]7CO)O[C@@H]6CO)O[C@@H]5CO)O[C@@H]4CO)O[C@@H]3CO [beta-Cyclodextrin] |
| > 46 µM | O=C1OC(c2ccc(O)cc2)(c2ccc(O)cc2)c2ccccc21 [Phenolphthalein] |
| > 46 µM | C[C@@](Cc1ccc(O)c(O)c1)(NN)C(=O)O [CARBIDOPA] |
| > 46 µM | COc1cc2nc(N3CCN(C(=O)[C@H]4CCCO4)CC3)nc(N)c2cc1OC [Terazosin hydrochloride] |

| IC50 of cell viability | SMILES |
| --- | --- |
| > 46 µM | NCCC(O)(P(=O)(O)O)P(=O)(O)O [Pamidronate disodium] |
| > 46 µM | Cc1ccc([S+](=O)([O-])NC(=O)NC(C)Cc2ccccc2)cc1 (centres undefined) [TOSIFENUM] |
| > 46 µM | COc1ccc(CN(CCN(C)C)c2ccccn2)cc1 [MEPYRAMINE] |
| > 46 µM | CC(C)NCC(O)c1ccc2ccccc2c1 (centres undefined) [PRONETHALOL] |
| > 46 µM | Nc1nnc(-c2cccc(Cl)c2Cl)c(N)n1 [Lamotrigine] |
| > 46 µM | CN1CCN(c2cc3c(cc2F)c(=O)c(C(=O)O)cn3-c2ccc(F)cc2)CC1 [DIFLOXACIN HYDROCHLORIDE] |
| > 46 µM | Cc1ccccc1C(=O)Nc1ccc(C(=O)N2CCCC(O)c3cc(Cl)ccc32)c(C)c1 (centres undefined) [TOLVAPTAN] |
| > 46 µM | COCC1=C(C(=O)OC(C)OC(=O)OC(C)C)N2C(=O)C(NC(=O)/C(=N\OC)c3csc(N)n3)C2SC1 (centres undefined) [Cefpodoxime proxetil] |
| > 46 µM | C\C1=C\C(=O)NC(=S)N1 [METHYLTHIOURACIL] |
| > 46 µM | CN1CCN(c2c(F)cc3c(=O)c(C(=O)O)cn4c3c2OCN4C)CC1 [Marbofloxacin] |
| > 46 µM | CCCCC(CC)COC(=O)/C=C/c1ccc(OC)cc1 (centres undefined) [Octinoxate] |
| > 46 µM | CC(=O)N1CC(O)CC1C(=O)O (centres undefined) [OXACEPROLUM] |
| > 46 µM | O=C1NC(=O)C2C3C=CC(C3)C12 (centres undefined) [NOREXIMIDUM] |
| > 46 µM | O=S([O-])CNc1ccc([S+](=O)([O-])c2ccc(NCS(=O)[O-])cc2)cc1 [Adesulfone sodium] |
| > 46 µM | C[C@]12CC[C@H]3c4ccc(O)cc4CC[C@@H]3[C@H]1CC[C@@H]2OC(=O)CCC1CCCC1 [Depoestradiol] |
| > 46 µM | O=C1OCCN1/N=C/c1ccc([N+](=O)[O-])o1 [Furazolidone] |
| > 46 µM | CN1[C@@H]2CCC[C@@H]1CC(NC(=O)c1nn(C)c3ccccc13)C2 (some centres undefined) [Granisetron Hydrochloride] |
| > 46 µM | CC(=O)NC(CC(C)C)C(=O)O (stereo in doubt) [ACETYL-L-LEUCINE] |
| > 46 µM | CCOC1=CC\2=C(NC(C)(C)\C=C2C)C=C1 [Ethoxyquin] |
| > 46 µM | Cc1[nH]c(=O)c(C#N)cc1-c1ccncc1 [Milrinone] |

| IC50 of cell viability | SMILES |
| --- | --- |
| > 46 µM | CC(C)(Oc1ccc(CCNC(=O)c2ccc(Cl)cc2)cc1)C(=O)O [Bezafibrate] |
| > 46 µM | CCC(=O)OCC(=O)[C@@]1(OC(=O)CC)[C@@H](C)C[C@H]2[C@@H]3CCC4=CC(=O)C=C[C@]4(C)[C@@]3(F)[C@@H](O)C[C@@]21C [dexamethasone dipropionate] |
| > 46 µM | CN1CC(=O)NC1=N [CREATININE] |
| > 46 µM | COc1ccc2cc1Oc1ccc(cc1)CC1c3c(cc4c(c3Oc3cc5c(cc3OC)CCN(C)C5C2)OCO4)CCN1C (centres undefined) [CEPHARANTHINE] |
| > 46 µM | C/C(=C(/CCOP(=O)(O)O)SC(=O)c1ccccc1)N(C=O)Cc1cnc(C)nc1N [Benfotiamine] |
| > 46 µM | N[C@@H](C(=O)N[C@H]1[C@H]2SC\C(=C(/N2C1=O)C(O)=O)Cl)C3=CC=CC=C3 [Cefaclorum] |
| > 46 µM | Oc1cn2c(n1)Nc1ccc(Cl)c(Cl)c1C2 [ANAGRELIDE HYDROCHLORIDE] |
| > 46 µM | Clc1ccc(Cn2c(CN3CCCC3)nc3ccccc32)cc1 [Clemizole hydrochloride] |
| > 46 µM | OCC1O[C@H](O[C@H]2C(O)C(O)C(O)O[C@@H]2CO)C(O)C(O)C1O (some centres undefined) [CELLOBIOSE (D[+])] |
| > 46 µM | CC(=O)OC1CCC2C3CCc4cc(O)ccc4C3CCC12C (centres undefined) [ESTRADIOL ACETATE] |
| > 46 µM | CCOc1cc(OCC)c(C(=O)CCC(=O)O)cc1OCC [TREPIBUTONE] |
| > 46 µM | CN1CCCCC1CCN1c2ccccc2Sc2ccc(S(C)=O)cc21 (centres undefined) [MESORIDAZINE] |
| > 46 µM | O=P(O)(O)CP(=O)(O)O [MEDRONIC ACID] |
| > 46 µM | COc1ccc2c(c1)c(CC(=O)OCC(=O)O)c(C)n2C(=O)c1ccc(Cl)cc1 [Acemetacin] |
| > 46 µM | CN(C)CCOc1ccccc1Cc1ccccc1.Nc1ccc(C(=O)O)c(O)c1 [Phentoloxamine and PAS] |
| > 46 µM | O=C(O)c1ccc(-n2nc(-c3ccccc3O)nc2-c2ccccc2O)cc1 [DEFERASIROX] |
| > 46 µM | CN(C)CCOC(=O)[C@@H](c1ccccc1)C1(O)CCCC1 [Cyclopentolate hydrochloride] |
| > 46 µM | CC(C)(CO)C(O)C(=O)NCCCC(=O)[O-] (centres undefined) [CALCIUM HOPANTENATE] |
| > 46 µM | CC[C@H](C)[C@H]1O[C@]2(CC[C@@H]1C)C[C@@H]1C[C@@H](C/C=C(\C)[C@H](O[C@@H]3C[C@H](OC)[C@H](O[C@@H]4C[C@H](OC)[C@@H](O)[C@H](C)O4)[C@H](C)O3)[C@@H](C)/C=C/C=C3\CO[C@@H]4[C@H](O)C(C)=C[C@@H](C(=O)O1)[C@]34O)O2 [IVERMECTIN] |

| SMILES | IC50 of cell viability |
| --- | --- |
| NCCc1ccc(O)cc1 [4-HYDROXYPHENETHYLAMINE] | > 46 µM |
| CC(=O)OCC(=O)[C@@H]1CC[C@@H]2[C@H]3CC[C@H]4C[C@@H](O)CC[C@]4(C)[C@@H]3C(=O)C[C@]21C [Alfadolone acetate] | > 46 µM |
| ClC1C(Cl)C(Cl)C(Cl)C(Cl)C1Cl (centres undefined) [LINDANE] | > 46 µM |
| C[C@]12N[C@H](Cc3ccccc31)c1ccccc12 [(+)-MK 801] | > 46 µM |
| CN[C@H](C)Cc1ccccc1 [S-(+)-Methamphetamine] | > 46 µM |
| CN1C(=O)CC[S+](=O)([O-])C1c1ccc(Cl)cc1 (centres undefined) [CHLORMEZANONE] | > 46 µM |
| CCC1(CC)C(=O)NC(=O)N(C)C1=O [METHARBITAL] | > 46 µM |
| CCC(=O)O[C@@](Cc1ccccc1)(c1ccccc1)[C@H](C)CN(C)C | > 46 µM |
| NC1CCCCC1N.O=C([O-])C(=O)[O-].[Pt+2] (centres undefined) [OXALIPLATIN] | > 46 µM |
| CC1NCCOC1c1ccccc1 (centres undefined) [Phenmetrazine Hydrochloride] | > 46 µM |
| NCC[C@H](O)C(=O)N[C@@H]1C[C@@H](N)[C@@H](O[C@@H]2O[C@@H](CN)[C@@H](O)[C@@H](O)[C@H]2N)[C@@H](O[C@@H]2O[C@@H](CO)[C@@H](O)[C@H]2O)[C@H]1O [Butirosin disulfate salt] | > 46 µM |
| CC(C)(O)C1C2OC(=O)C1C1(O)CC3OC34C(=O)OC2C14C (centres undefined) [PICROTOXIN] | > 46 µM |
| OCCOc1ccccc1 [Ethylene glycol monophenyl ether] | > 46 µM |
| N#CN [Cyanamide] | > 46 µM |
| CN1C(=O)COc2c(C(=O)NC3CN4CCC3CC4)cc(Cl)cc21 (centres undefined) | > 46 µM |
